Results reported in patent publication US20230040081A1 (priority 2019, published 2023).
Values joined by “and” are separate entries in the source; they are usually repeats but may differ in a detail not shown here. Identical values can stand only once.

What was measured:
Clopt1 (Vaccinia virus) [1] = type: cell-based
Clopt1 (Vaccinia virus) [2] = type: cell-based; remark: listed apart in the source
[3] = target: Vaccinia RNA polymerase core enzyme (Rpo147/Rpo132/Rpo35/Rpo30/Rpo22/Rpo19/Rpo18/Rpo7) (Vaccinia virus (GLV-1h439, Lister …, UniProt P07392;Q76ZP7;P24757;P21603;P68609;P68611;P04310;P68317 …)); assay: structure; conditions: tags: HA/FLAG C-terminal on Rpo132

Molecule | intensity, times lower without glutamine in the third medium switch than counterparts (Clopt1 (Vaccinia virus) [1]) | final intensity, times lower in glutamine absence than in glutamine fed samples (Clopt1 (Vaccinia virus) [1]; after 21 hours) | Factor (Clopt1 (Vaccinia virus) [2]) | virus replication, times higher with glutamine in the third medium switch than negative counterparts (Clopt1 (Vaccinia virus) [2]) | binding result [3]
NC(=O)CC[C@H](N)C(=O)O [glutamine, L-glutamine] | roughly 100 times | over 100 times | 1222 and 1468 and 1774 and 2000 | more than 1000 times | –
vRNAP elongation scaffold (template DNA/non-template DNA/RNA) (mixed, RNA 5'-triphosphate) DNA 1: GACTTATGATCGGATAAGAGTCCAGCCAATGACAGATGCCTCATAGCC DNA 2: GGCTATGAGGCATCCCATGCGTTGAGGACTCTTATCCGATCATAAGTC RNA: GAGUUGUAAUAACAAGGGAAAUGUCAUUGGC | – | – | – | – | binds
